Assay results: patent US8106055B2, “Substituted amide compounds” (Gruenenthal GmbH, priority 2007, dated 2012)

target: T1, human μ opiate receptor (Homo sapiens, UniProt P35372); experiment: Affinity for the human μ opiate receptor ([3H]-naloxone displacement, CHO-K1 receptor membrane preparation, SPA); format: binding; conditions: test concentration of 1 μM
T1 construct: purchased PerkinElmer Life Sciences, Zaventem, Belgium RB-HOM; host or cells: CHO-K1 cells (membrane preparation)
In short: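 CHO-K1 membranes expressing human μ receptor incubated 90 min at room temperature with 1 nmol/l [3H]-naloxone and WGA-SPA beads in 50 mmol/l Tris-HCl, 0.06% BSA; 100 μmol/l naloxone defines non-specific binding. Values are % inhibition of specific binding at 1 μM; IC50 converted to Ki by Cheng-Prusoff.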

T1 sequence (P35372 whole entry): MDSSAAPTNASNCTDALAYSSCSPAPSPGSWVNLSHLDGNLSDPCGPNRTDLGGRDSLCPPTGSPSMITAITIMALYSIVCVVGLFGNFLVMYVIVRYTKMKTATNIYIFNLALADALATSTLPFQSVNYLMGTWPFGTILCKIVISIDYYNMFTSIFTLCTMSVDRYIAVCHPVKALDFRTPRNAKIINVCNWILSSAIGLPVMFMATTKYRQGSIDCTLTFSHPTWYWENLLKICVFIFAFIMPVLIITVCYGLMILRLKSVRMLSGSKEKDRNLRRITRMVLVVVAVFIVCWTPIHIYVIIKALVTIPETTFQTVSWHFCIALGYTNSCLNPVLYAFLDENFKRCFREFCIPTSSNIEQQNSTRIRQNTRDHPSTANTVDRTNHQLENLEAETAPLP

SMILES | μ (binding on the μ opioid receptor, % inhibition) [%]
CN(C)C(c1cccc(F)c1)C1CCC(CCNC(=O)COCCC2CCN(S(=O)(=O)c3ccccc3)CC2)CC1 (stereo not shown) [Example 543] | 29
CN(C)C(CCc1ccccc1)C1CCC(CNC(=O)COCC2CCCN(S(=O)(=O)c3ccccc3)C2)CC1 (stereo not shown) [Example 544] | 24
COc1cc(C)c(S(=O)(=O)N2CCC(OCC(=O)NCC3CCC(C(CCc4ccccc4)N(C)C)CC3)CC2)c(C)c1C (stereo not shown) [Example 546] | 33
COc1cc(C)c(S(=O)(=O)N(CCOCC(=O)NCCC2CCC(C(c3ccc(F)cc3)N(C)C)CC2)Cc2ccccc2)c(C)c1 (stereo not shown) [Example 547] | 30
COc1ccc(S(=O)(=O)N(C)CCOCC(=O)NC2CCC(C(c3ccc(F)cc3)N(C)C)CC2)cc1OC (stereo not shown) [Example 548] | 26
COc1ccc(S(=O)(=O)N(C)CCOCC(=O)NC2CCC(C(c3ccc(F)cc3)N(C)C)CC2)cc1 (stereo not shown) [Example 549] | 29
COc1ccc(S(=O)(=O)N(C)CCOCC(=O)NCC2CCC(C(CCc3ccccc3)N(C)C)CC2)cc1 (stereo not shown) [Example 550] | 20
COc1cc(C)c(S(=O)(=O)N2CCCC(OCC(=O)NCC3CCC(C(CCc4ccccc4)N(C)C)CC3)C2)c(C)c1C (stereo not shown) [Example 551] | 35
CN(C)C(CCc1ccccc1)C1CCC(CNC(=O)COC2CCN(S(=O)(=O)c3cccc(C(F)(F)F)c3)C2)CC1 (stereo not shown) [Example 552] | 23
CN(C)C(c1ccc(F)cc1)C1CCC(CCNC(=O)COC2CCN(S(=O)(=O)c3ccccc3)CC2)CC1 (stereo not shown) [Example 553] | 26
COc1cc(C)c(S(=O)(=O)N(CCOCC(=O)NCCC2CCC(C(c3ccc(F)cc3)N(C)C)CC2)Cc2ccccc2)c(C)c1C (stereo not shown) [Example 554] | 28
COc1ccc(S(=O)(=O)N2CCCCC2COCC(=O)NC2CCC(C(c3ccc(F)cc3)N(C)C)CC2)cc1OC (stereo not shown) [Example 555] | 23
CN(C)C(CCc1ccccc1)C1CCC(CNC(=O)COCCN(C)S(=O)(=O)c2cccc(C(F)(F)F)c2)CC1 (stereo not shown) [Example 556] | 27
CN(C)C(CCc1ccccc1)C1CCC(CNC(=O)COC2CCN(S(=O)(=O)c3ccc(Cl)cc3)C2)CC1 (stereo not shown) [Example 557] | 26
CN(C)C(CCc1ccccc1)C1CCC(CNC(=O)COC2CCCN(S(=O)(=O)c3ccccc3)C2)CC1 (stereo not shown) [Example 558] | 29
COc1cc(C)c(S(=O)(=O)N(CCOCC(=O)NCC2CCC(C(c3ccc(Cl)cc3)N(C)C)CC2)Cc2ccccc2)c(C)c1C (stereo not shown) [Example 560] | 22
COc1cc(C)c(S(=O)(=O)N2CCC(CCOCC(=O)NCCC3CCC(C(c4ccc(Cl)cc4)N(C)C)CC3)CC2)c(C)c1C (stereo not shown) [Example 561] | 26
COc1cc(C)c(S(=O)(=O)N(CCOCC(=O)NCC2CCC(C(CCc3ccccc3)N(C)C)CC2)Cc2ccccc2)c(C)c1C (stereo not shown) [Example 562] | 23
COc1cc(C)c(S(=O)(=O)N(CCOCC(=O)NCC2CCC(C(c3ccc(F)cc3)N(C)C)CC2)Cc2ccccc2)c(C)c1C (stereo not shown) [Example 563] | 25
COc1cc(C)c(S(=O)(=O)N2CCC(OCC(=O)NCC3CCC(C(CCc4ccccc4)N(C)C)CC3)C2)c(C)c1 (stereo not shown) [Example 565] | 20
COc1ccc(S(=O)(=O)N2CCC(OCC(=O)NCC3CCC(C(CCc4ccccc4)N(C)C)CC3)C2)cc1OC (stereo not shown) [Example 566] | 19
CN(C)C(CCc1ccccc1)C1CCC(CNC(=O)COCCN(C)S(=O)(=O)c2ccc(OC(F)(F)F)cc2)CC1 (stereo not shown) [Example 567] | 23

same assay, conditions: test concentration of 1 μM; 1 µM

SMILES | μ (binding on the μ opioid receptor, % inhibition) [%]
COc1ccc(S(=O)(=O)N2CCCCC2COCC(=O)NCC2CCC(C(CCc3ccccc3)N(C)C)CC2)c(OC)c1 (stereo not shown) [Example 420] | 53
CN(C)C(CCc1ccccc1)C1CCC(CNC(=O)COCCN(C)S(=O)(=O)c2c(Cl)cccc2Cl)CC1 (stereo not shown) [Example 476] | 47
COc1ccc(S(=O)(=O)N2CCCCC2COCC(=O)NCC2CCC(C(CCc3ccccc3)N(C)C)CC2)c(OC)c1 (stereo not shown) [Example 486] | 36
COc1ccc(S(=O)(=O)N2CCCCC2COCC(=O)NCC2CCC(C(CCc3ccccc3)N(C)C)CC2)cc1OC (stereo not shown) [Example 559] | 14

same assay, conditions: test concentration of 1 μM; read-out: μ (binding on the μ opioid receptor, % inhibition)

SMILES | inhibition at 1 µM [%]
CN(C)C(c1cccc(F)c1)C1CCC(CCNC(=O)COCCN(C)S(=O)(=O)c2ccc(Cl)cc2Cl)CC1 (stereo not shown) [Example 126, 2-(2-(2,4-dichloro-N-methylphenylsulfonamido)ethoxy)-N-(2-(4-((dimethylamino)(3-fluorophenyl)methyl)cyclohexyl)ethyl)acetamide] | 92
COc1ccc(S(=O)(=O)N(C)CCOCC(=O)NCC2CCC(C(c3cccs3)N(C)C)CC2)cc1OC (stereo not shown) [Example 127, 2-(2-(3,4-Dimethoxy-N-methylphenylsulfonamido)ethoxy)-N-((4-((dimethylamino)(thiophen-2-yl)methyl)cyclohexyl)methyl)acetamide] | 87
COc1ccc(S(=O)(=O)N(C)CCOCC(=O)NCCC2CCC(C(c3cccs3)N(C)C)CC2)cc1 (stereo not shown) [Example 128, N-(2-(4-((dimethylamino)(thiophen-2-yl)methyl)cyclohexyl)ethyl)-2-(2-(4-methoxy-N-methylphenylsulfonamido)ethoxy)acetamide] | 91
COc1cc(C)c(S(=O)(=O)N2CCCC(OCC(=O)NCCC3CCC(C(c4cccs4)N(C)C)CC3)C2)c(C)c1C (stereo not shown) [Example 130, N-(2-(4-((dimethylamino)(thiophen-2-yl)methyl)cyclohexyl)ethyl)-2-(1-(4-methoxy-2,3,6-trimethylphenylsulfonyl)piperidin-3-yloxy)acetamide] | 94
COc1cc(C)c(S(=O)(=O)N2CCC(CCOCC(=O)NCC3CCC(C(c4cccs4)N(C)C)CC3)CC2)c(C)c1C (stereo not shown) [Example 131, N-((4-((dimethylamino)(thiophen-2-yl)methyl)cyclohexyl)methyl)-2-(2-(1-(4-methoxy-2,3,6-trimethylphenylsulfonyl)piperidin-4-yl)ethoxy)acetamide] | 86
CN(C)C(c1cccc(F)c1)C1CCC(NC(=O)COC2CCCCC2N(C)S(=O)(=O)c2ccc(Cl)c(Cl)c2)CC1 (stereo not shown) [Example 132, 2-(2-(3,4-dichloro-N-methylphenylsulfonamido)cyclohexyloxy)-N-(4-((dimethylamino)(3-fluorophenyl)methyl)cyclohexyl)acetamide] | 91
COc1ccc(S(=O)(=O)N2CCCCC2COCC(=O)NCC2CCC(C(c3cccs3)N(C)C)CC2)cc1OC (stereo not shown) [Example 133, 2-((1-(3,4-Dimethoxyphenylsulfonyl)piperidin-2-yl)methoxy)-N-((4-((dimethylamino)(thiophen-2-yl)methyl)cyclohexyl)methyl)acetamide] | 89
CN(C)C(c1ccccc1)C1CCC(NC(=O)COCCN(C)S(=O)(=O)c2c(Cl)cccc2Cl)CC1 (stereo not shown) [Example 135, 2-(2-(2,6-dichloro-N-methylphenylsulfonamido)ethoxy)-N-(4-((dimethylamino)(phenyl)methyl)cyclohexyl)acetamide] | 89
